Columns and labels:
AMARE [1] = assay: Herbicidal pre-emergence action 2a (greenhouse pots, visual scoring); format: in vivo, Amaranthus retroflexus; details: dosage 320 g/ha, visual scoring after about 3 weeks vs untreated controls
Source text: (§1) [table] a) Seeds of monocotyledonous and dicotyledonous weed plants and crop plants are placed in plastic or organic plant pots and covered with soil. The compounds of the invention, formulated in the form of wettable powders (WP) or as emulsion concentrates (EC), are then applied onto the surface of the covering soil as aqueous suspension or emulsion with addition of 0.5% additive at a water application rate of 600 1/ha (converted). After the treatment, the pots are placed in a greenhouse and kept under good growth conditions for the trial plants. After about 3 weeks, the effect of the preparations is scored visually in comparison with untreated controls as percentages. For example, 100% activity=the plants have died, 0% activity=like control plants. Tables B1 to B15 below show the effects of selected compounds of the general formula (I) according to Tables 1 and 2 on various harmful plants and an application rate corresponding to 320 g/ha and/or 80 g/ha, which were obtained by the experimental procedure mentioned above.

AVEFA [2] = assay: Herbicidal post-emergence action 1a (greenhouse pots, visual rating); format: in vivo, Avena fatua; details: Dosage 320 g/ha; rated visually about 3 weeks after treatment; 100% = plants have died, 0% = like control plants
Procedure: (§2) [table] a) Seeds of monocotyledonous and dicotyledonous weeds and crop plants are placed in sandy loam in plastic or organic plant pots, covered with soil and cultivated in a greenhouse under controlled growth conditions. 2 to 3 weeks after sowing, the test plants are treated at the one-leaf stage. The compounds of the invention, formulated in the form of wettable powders (WP) or as emulsion concentrates (EC), are then sprayed onto the green parts of the plants as aqueous suspension or emulsion with addition of 0.5% additive at a water application rate of 600 1/ha (converted). After the test plants have been kept in the greenhouse under optimum growth conditions for about 3 weeks, the activity of the preparations is rated visually in comparison to untreated controls. For example, 100% activity=the plants have died, 0% activity=like control plants. Tables A1 to A15 below show the effects of selected compounds of the general formula (I) according to Tables 1 and 2 on various harmful plants and an application rate corresponding to 320 g/ha and/or 80 g/ha, which were obtained by the experimental procedure mentioned above.

AMARE [3] = assay: as above; format: in vivo, Amaranthus retroflexus; details: visual rating about 3 weeks after treatment
Procedure: as §2

LOLRI [4] = assay: as above; format: in vivo, Lolium rigidum; details: Dosage 320 g/ha; rated visually about 3 weeks after treatment; 100% = plants have died, 0% = like control plants
Procedure: as §2

VERPE [5] = assay: as above; format: in vivo, Veronica persica; details: visual rating about 3 weeks after treatment
Procedure: as §2

ECHCG [6] = assay: as above; format: in vivo, Echinochloa crus-galli; details: Dosage 320 g/ha; rated visually about 3 weeks after treatment; 100% = plants have died, 0% = like control plants
Procedure: as §2

ALOMY [7] = assay: as above; format: in vivo, Alopecurus myosuroides; details: rated visually about 3 weeks after treatment, 100% = plants have died, 0% = like control plants
Procedure: as §2

AVEFA [8] = assay: Herbicidal pre-emergence action 2a (greenhouse pots, visual scoring); format: in vivo, Avena fatua; details: dosage 320 g/ha, visual scoring after about 3 weeks
Source text: as §1

ABUTH = assay: Herbicidal post-emergence action 1a (greenhouse pots, visual rating); format: in vivo, Abutilon theophrasti; details: visual rating about 3 weeks after treatment
Procedure: as §2

ALOMY [9] = assay: Herbicidal pre-emergence action 2a (greenhouse pots, visual scoring); format: in vivo, Alopecurus myosuroides; details: dosage 320 g/ha, visual scoring after about 3 weeks
Source text: as §1

ECHCG [10] = assay: as above; format: in vivo, Echinochloa crus-galli; details: dosage 320 g/ha, visual scoring after about 3 weeks
Source text: as §1

MATIN [11] = assay: as above; format: in vivo, Matricaria inodora; details: dosage 320 g/ha, visual scoring after about 3 weeks vs untreated controls
Source text: as §1

SETVI [12] = assay: as above; format: in vivo, Setaria viridis; details: dosage 320 g/ha, visual scoring after about 3 weeks vs untreated controls
Source text: as §1

VERPE [13] = assay: as above; format: in vivo, Veronica persica; details: dosage 320 g/ha, visual scoring after about 3 weeks vs untreated controls
Source text: as §1

SETVI [14] = assay: Herbicidal post-emergence action 1a (greenhouse pots, visual rating); format: in vivo, Setaria viridis; details: rated visually about 3 weeks after treatment, 100% = plants have died, 0% = like control plants
Procedure: as §2

POLCO [15] = assay: as above; format: in vivo, Polygonum convolvulus; details: visual rating about 3 weeks after treatment
Procedure: as §2

LOLRI [16] = assay: Herbicidal pre-emergence action 2a (greenhouse pots, visual scoring); format: in vivo, Lolium rigidum; details: dosage 320 g/ha, visual scoring after about 3 weeks vs untreated controls
Source text: as §1

POLCO [17] = assay: as above; format: in vivo, Polygonum convolvulus; details: dosage 320 g/ha, visual scoring after about 3 weeks vs untreated controls
Source text: as §1

MATIN [18] = assay: Herbicidal post-emergence action 1a (greenhouse pots, visual rating); format: in vivo, Matricaria inodora; details: dosage 320 g/ha, visual rating about 3 weeks after treatment
Procedure: as §2

PHBPU = assay: as above; format: in vivo, Pharbitis purpurea; details: dosage 320 g/ha, visual rating about 3 weeks after treatment
Procedure: as §2

ECHCG [19] = assay: Herbicidal post-emergence action 1b (twin sowing, 1280 g/ha); format: in vivo, Echinochloa crus-galli; details: dosage 1280 g/ha, visual rating about 3 weeks after treatment
Procedure: (§3) [table] b) Seeds of mono- and dicotyledonous weed plants are placed in plastic pots in sandy loam soil (twin sowing with one species each of mono- or dicotyledonous weed plants per pot), covered with soil and cultivated in a greenhouse under controlled growth conditions. 2 to 3 weeks after sowing, the test plants are treated at the one-leaf stage. The compounds of the invention, formulated in the form of wettable powders (WP) or as emulsion concentrates (EC), are applied to the green parts of the plants as aqueous suspension or emulsion with addition of 0.5% additive at a water application rate equivalent to 600 litres per hectare. After the test plants have been kept in the greenhouse under optimum growth conditions for about 3 weeks, the activity of the preparations is rated visually in comparison to untreated controls. For example, 100% activity=the plants have died, 0% activity=like control plants. Tables A16 to A21 below show the effects of selected compounds of the general formula (I) according to Tables 1 and 2 on various harmful plants and at an application rate corresponding to 1280 g/ha, which were obtained by the experimental procedure mentioned above.

AMARE [20] = assay: Herbicidal pre-emergence action 2b (doubly sown, 1280 g/ha); format: in vivo, Amaranthus retroflexus; details: doubly sown pots, dosage 1280 g/ha, visual scoring after about 3 weeks
Source text: (§4) [table] b) Seeds of mono- and dicotyledonous weed plants are placed in plastic pots in sandy loam soil (doubly sown with one species each of mono- or dicotyledonous weed plants per pot) and covered with soil. The compounds of the invention, formulated in the form of wettable powders (WP) or as emulsion concentrates (EC), are then applied onto the surface of the covering soil as aqueous suspension or emulsion with addition of 0.5% additive at a water application rate equivalent to 600 litres per hectare. After the treatment, the pots are placed in a greenhouse and kept under good growth conditions for the trial plants. After about 3 weeks, the effect of the preparations is scored visually in comparison with untreated controls as percentages. For example, 100% activity=the plants have died, 0% activity=like control plants. Tables B16 to B21 below show the effects of selected compounds of the general formula (I) according to Tables 1 and 2 on various harmful plants and at an application rate corresponding to 1280 g/ha, which were obtained by the experimental procedure mentioned above.

STEME [21] = assay: as above; format: in vivo, Stellaria media; details: doubly sown pots, dosage 1280 g/ha, visual scoring after about 3 weeks
Source text: as §4

POAAN [22] = assay: as above; format: in vivo, Poa annua; details: doubly sown pots, dosage 1280 g/ha, visual scoring after about 3 weeks
Source text: as §4

MATIN [23] = assay: as above; format: in vivo, Matricaria inodora; details: doubly sown pots, dosage 1280 g/ha, visual scoring after about 3 weeks
Source text: as §4

ECHCG [24] = assay: as above; format: in vivo, Echinochloa crus-galli; details: doubly sown pots, dosage 1280 g/ha, visual scoring after about 3 weeks
Source text: as §4

MATIN [25] = assay: Herbicidal post-emergence action 1b (twin sowing, 1280 g/ha); format: in vivo, Matricaria inodora; details: dosage 1280 g/ha, visual rating about 3 weeks after treatment
Procedure: as §3

STEME [26] = assay: as above; format: in vivo, Stellaria media; details: dosage 1280 g/ha, visual rating about 3 weeks after treatment
Procedure: as §3

VIOTR [27] = assay: Herbicidal pre-emergence action 2a (greenhouse pots, visual scoring); format: in vivo, Viola tricolor; details: dosage 320 g/ha, visual scoring after about 3 weeks vs untreated controls
Source text: as §1

POAAN [28] = assay: Herbicidal post-emergence action 1b (twin sowing, 1280 g/ha); format: in vivo, Poa annua; details: dosage 1280 g/ha, visual rating about 3 weeks after treatment
Procedure: as §3

VIOTR [29] = assay: Herbicidal post-emergence action 1a (greenhouse pots, visual rating); format: in vivo, Viola tricolor; details: visual rating about 3 weeks after treatment
Procedure: as §2

DIGSA [30] = assay: Herbicidal pre-emergence action 2a (greenhouse pots, visual scoring); format: in vivo, Digitaria sanguinalis; details: dosage 320 g/ha, visual scoring after about 3 weeks
Source text: as §1

DIGSA [31] = assay: Herbicidal pre-emergence action 2b (doubly sown, 1280 g/ha); format: in vivo, Digitaria sanguinalis; details: doubly sown pots, dosage 1280 g/ha, visual scoring after about 3 weeks
Source text: as §4

Compound	Pre-emergence action against AMARE in % (AMARE [1])	Post-emergence action against AVEFA in % (AVEFA [2])	Post-emergence action against AMARE in % (AMARE [3]; dosage 320 g/ha)	Post-emergence action against LOLRI in % (LOLRI [4])	Post-emergence action against VERPE in % (VERPE [5]; dosage 80 g/ha)	Post-emergence action against VERPE in % (VERPE [5]; dosage 320 g/ha)	Post-emergence action against ECHCG in % (ECHCG [6])	Post-emergence action against ALOMY in % (ALOMY [7]; Dosage 320 g/ha)	Post-emergence action against ABUTH in % (ABUTH; dosage 320 g/ha)	Pre-emergence action against ALOMY in % (ALOMY [9])	Pre-emergence action against ECHCG in % (ECHCG [10])	Pre-emergence action against MATIN in % (MATIN [11])	Pre-emergence action against SETVI in % (SETVI [12])	Pre-emergence action against VERPE in % (VERPE [13])	Pre-emergence action against LOLRI in % (LOLRI [16])	Pre-emergence action at 1280 g/ha against AMARE in % (AMARE [20])	Pre-emergence action at 1280 g/ha against STEME in % (STEME [21])	Pre-emergence action at 1280 g/ha against POAAN in % (POAAN [22])	Pre-emergence action at 1280 g/ha against ECHCG in % (ECHCG [24])	Post-emergence action at 1280 g/ha against MATIN in % (MATIN [25])	also measured
CCOC(=O)COc1nn(-c2cnccn2)c(-c2cncc(F)c2)c1Br [Example I-90]	100%	100%	90%	80%	90%	90%	90%	100%	90%	90%	100%	100%	100%	100%	100%						Post-emergence action against ALOMY in % (ALOMY [7]; Dosage 80 g/ha): 80%; Pre-emergence action against AVEFA in % (AVEFA [8]): 100%; Post-emergence action against ABUTH in % (ABUTH; dosage 80 g/ha): 90%; Post-emergence action against SETVI in % (SETVI [14]; Dosage 80 g/ha): 80%; Post-emergence action against SETVI in % (SETVI [14]; Dosage 320 g/ha): 90%; Post-emergence action against POLCO in % (POLCO [15]; dosage 80 g/ha): 80%; Post-emergence action against POLCO in % (POLCO [15]; dosage 320 g/ha): 80%; Pre-emergence action against POLCO in % (POLCO [17]): 100%
CCOC(=O)COc1nn(-c2cnccn2)c(-c2cncc(F)c2)c1F [Example I-94]		80%	80%	90%	90%	90%	90%	80%	90%		100%	90%			90%						Post-emergence action against MATIN in % (MATIN [18]): 80%; Post-emergence action against SETVI in % (SETVI [14]; Dosage 320 g/ha): 90%; Post-emergence action against PHBPU in % (PHBPU): 100%; Post-emergence action against POLCO in % (POLCO [15]; dosage 320 g/ha): 80%
COC(=O)COc1nn(-c2cnccn2)c(-c2ccnc(F)c2)c1Cl [Example I-06]																90%	100%	100%	100%	90%	Post-emergence action at 1280 g/ha against ECHCG in % (ECHCG [19]): 100%; Pre-emergence action at 1280 g/ha against MATIN in % (MATIN [23]): 90%
COC(=O)[C@H](C)Oc1nn(-c2cnccn2)c(-c2cccc(F)c2)c1Br [Example I-21]	100%	80%	90%	90%		80%		90%		80%		80%	90%	90%	90%	100%	100%	100%	100%	90%	Post-emergence action at 1280 g/ha against STEME in % (STEME [26]): 100%; Post-emergence action against AMARE in % (AMARE [3]; dosage 80 g/ha): 80%; Pre-emergence action against VIOTR in % (VIOTR [27]): 100%; Post-emergence action against PHBPU in % (PHBPU): 80%; Pre-emergence action at 1280 g/ha against MATIN in % (MATIN [23]): 100%; Post-emergence action at 1280 g/ha against POAAN in % (POAAN [28]): 100%; Post-emergence action against VIOTR in % (VIOTR [29]; dosage 80 g/ha): 80%; Post-emergence action against VIOTR in % (VIOTR [29]; dosage 320 g/ha): 90%; Pre-emergence action against DIGSA in % (DIGSA [30]): 90%
C[C@@H](Oc1nn(-c2cnccn2)c(-c2cncc(F)c2)c1Cl)C(=O)O [Example 1-97]											100%										
COC(=O)[C@H](C)Oc1nn(-c2cnccn2)c(-c2ccc(F)nc2)c1C#N [Example I-26]																90%	100%	100%	100%	100%	Post-emergence action at 1280 g/ha against ECHCG in % (ECHCG [19]): 100%; Pre-emergence action at 1280 g/ha against DIGSA in % (DIGSA [31]): 100%; Post-emergence action at 1280 g/ha against POAAN in % (POAAN [28]): 100%
